Measurements as given in patent US6432681B1, “Compositions for treating Escherichia coli urinary tract infections” (The Regents of the University of Washington, priority 1992, dated 2002).

Legend:
[1] = tested on: Escherichia coli R45; test: Bacterial overlay assay: binding of 35S-labelled E. coli R45 to glycolipids separated on HPTLC; details: for binding of E. coli R45 to glycolipid standards: GSL standards separated on HPTLC plates; for reaction of E. coli R45 with SGG and DSGG standards (FIG. 1A): standards run beside vaginal epithelial cell gangliosides, autoradiogram
Description: E. coli R45 was isolated from a person with cystitis which had the pap family genotype, expressing both the P and F adhesins (Stapleton, A. et al., J. Infect Dis., 163:773-779, 1989). Organisms were kept frozen in 50% glycerol/50% Luria broth (Maniatis, T. et al., Molecular Cloning: A Laboratory Manual, 1982) at −70° C. until the night before use, when they were streaked onto Luria agar plates (Maniatis, T. et al., Molecular Cloning: A Laboratory Manual, 1982) to promote fimbrial expression and grown overnight at 37° C. On the day of use, bacteria were scraped from the plate, resuspended in M9 medium (Maniatis, T. et al., Molecular Cloning: A Laboratory Manual, 1982) without amino acids, and shaken at 37° C. for 40 minutes to deplete cellular methionine stores. ^35S-methionine (Trans^35S-label, 1137 Ci/mmol, ICN Biochemicals, Irvine, California) was then added at 200 μCi per 10^10 organisms. The cells were shaken for one hour, washed three times in PBS and resuspended in PBS (pH 7.3), and counted in a scintillation counter to give a final activity of approximately 0.01 to 0.02 cpm/organism.
(§1) Glycolipids (10 to 40 μg/lane) were chromatographed on glass HPTLC plates (Whatman) in CMW (50:40:10 by volume) with 0.05% CaCl2 with one plate run in parallel for orcinol staining. Plates were dried, dipped for 1 minute in diethyl ether containing 0.5% polyisobutylmethacrylate, dried, and preincubated in 1% bovine serum albumin (BSA)/PBS for one hour, then washed three times in PBS. Radiolabelled bacteria were overlaid (10^8 cpm total per plate) and the plates were gently rocked for one hour, washed four times in PBS and subjected to autoradiography.
The binding of metabolically radiolabelled E. coli strain R45 to glycolipid standards separated on HPTLC plates was determined using a broad panel of GSLs with varying carbohydrate moieties, as shown in Table 2.
Subsequent experiments were conducted to identify the unique E. coli-binding GSL band detected in nonsecretors' vaginal epithelial cells. Total upper neutral GSLs and total upper gangliosides were extracted from vaginal epithelial cells pooled in equal quantities from 5 nonsecretors and 9 secretors and reacted with radiolabelled E. coli R45.
Lane 1 contains ceramide trihexoasyl and globoside standards; Lane 2 contains total lower phase GSLs from the nonsecretors; Lane 3 contains total lower phase GSLs from the secretors; Lane 4 contains the Forssman antigen standard; Lanes 5 and 6 contain total upper neutral GSLs from nonsecretors and secretors, respectively; Lanes 7 and 10 contain gal-globoside, sialosyl gal-globoside, and disialosyl gal-globoside standards; Lanes 8 and 9 contain total upper phase gangliosides from nonsecretors and secretors, respectively.

[2] = tested on: E. coli isolates R45, IA2, JJ122, pDC1 and pJFK102; test: Bacterial overlay assay: binding of five 35S-labelled E. coli UTI isolates to serially diluted globo-series GSLs, radioactivity counted; design: species or system Escherichia coli; details: all five isolates; GSL serially diluted from 300 ng to 18.25 ng on HPTLC
Description: as §1
Five isolates of E. coli were isolated from patients with UTI, R45 (wild-type cystitis isolate expressing class II pap adhesin), IA2 (wild-type isolate expressing class II pap adhesin), JJ122 (expresses class I pap adhesin), pDC1 (a subclone of IA2, expresses class II pap adhesin) and pJFK102 (expresses class III pap adhesin). The five strains were labelled metabolically with ^35S and exposed to various glycosphingolipids (GSL) separated by HPTLC in the bacterial overlay assay described hereinabove. The amount of radioactivity in the area of each GSL was counted. Controls included HB101.
The GSL's tested were CTH (globotriaosylceramide, isolated from human red blood cells), globoside (also isolated from human erythrocytes), SGG (isolated from vaginal epithelial cells or human kidney), CMH (ceramide monohexoside isolated from adenocarcinoma of colon, negative control) and DSGG (isolated from the same sources as SGG). The GSL's were serially diluted beginning with 300 ng and ending at 18.25 ng.

[3] = tested on: MAb ID4 (directed against SGG); test: Radioimmunoassay of GSLs immobilized in microtiter wells with MAb ID4; format: binding; details: standards from human pancreas, bovine brain (GD1a), human placenta (disialosyl I)
Description: Radioimmunoassays of GSLs immobilized in microtiter wells were performed according to the method of Karlsson (Karlsson, K.-A. et al., Methods Enzymol., 138:220-232, 1987).
The SGG and DSGG bands from the nonsecretors' vaginal epithelial cell extracts were then reacted with ID4 in a radioimmunoassay, shown in FIG. 3.
In FIG. 3, the dotted line indicates sialosyl gal-globoside (SGG) standard from human pancreas; the solid line indicates the band co-migrating with SGG eluted from TLC of nonsecretors' extracted vaginal epithelial cells; the dashed line indicates eluted band co-migrating with DSGG from nonsecretors and the following GSL standards: gal-globoside and DSGG from human pancreas, GD1a from bovine brain, and disialosyl I from human placenta.

Row | Substance | binding of E. coli R45 to glycolipid standards [1] | level of binding of the E. coli isolates to the GSL [2] | reaction of antibody ID4 with GSL standards (FIG. 3) [3] | reaction of E. coli R45 with SGG and DSGG standards (FIG. 1A) [1]
1 | GalNAcβ1-3 Galα1-4 Galβ1-4 Glcβ1-1cer [Globoside] | bound | lower than to DSGG |  | 
2 | GalNAcα1-3 (Fucα1-2)Galβ1-3 GalNacβ1-3 Galα1-4 Galβ1-4 Glcβ1-1cer [Globo A] | bound |  |  | 
3 | Galβ1-3 GalNAcβ1-3 Galα1-4 Galβ1-4 Glcβ1-1cer [Gal-globoside] | bound |  | did not bind | 
4 | Galα1-4 Galβ1-4 Glcβ1-1cer [CTH] |  | lower than to DSGG |  | 
5 | (Fucα1-2)Galβ1-3 GalNAcβ1-3 Galα1-4 Galβ1-4 Glcβ1-1cer [Globo H] | bound |  |  | 
6 | NeuAcα2-3 Galβ1-3 GalNAcβ1-3 Galα1-4 Galβ1-4 Glcβ1-1ce [SGG] |  | highest binding | reacted | reacted
7 | GD1a |  |  | did not bind | 
8 | GalNAcα1-3 Galβ1-3 GalNAcβ1-3 Galα1-4 Galβ1-4 Glcβ1-1cer [Forssman] | bound |  |  | 
9 | NeuAcα2-3 (NeuAcα2-6)Galβ1-3 GalNAcβ1-3 Galα1-4 Galβ1-4 Glcβ1-1cer [DSGG] |  |  | did not bind | reacted
